Source: ChEMBL document CHEMBL1126421, “Total synthesis of myo-inositol-1-phosphate-4,5-pyrophosphate, a novel second messenger analogue, via myo-inositol-1-phosphate-4,5-bisphosphorothioate” (Bioorg Med Chem Lett, 1992)
pKi: −log10 of the molar value.

Target: T1, Inositol polyphosphate-5-phosphatase A (Homo sapiens, UniProt Q14642)
T1 sequence (Q14642 whole entry): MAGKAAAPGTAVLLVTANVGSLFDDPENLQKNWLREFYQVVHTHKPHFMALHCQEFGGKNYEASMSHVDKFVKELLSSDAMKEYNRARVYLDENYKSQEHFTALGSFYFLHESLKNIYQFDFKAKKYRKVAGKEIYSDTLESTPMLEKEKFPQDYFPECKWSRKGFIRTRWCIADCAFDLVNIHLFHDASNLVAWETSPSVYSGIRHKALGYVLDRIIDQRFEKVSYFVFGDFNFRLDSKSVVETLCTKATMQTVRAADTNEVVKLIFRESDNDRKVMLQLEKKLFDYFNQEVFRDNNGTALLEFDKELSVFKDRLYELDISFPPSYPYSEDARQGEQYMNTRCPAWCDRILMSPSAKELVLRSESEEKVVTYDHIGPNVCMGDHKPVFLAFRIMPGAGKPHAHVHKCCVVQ
Test: The compound was evaluated for inhibition of Inositol-1,4,5-trisphosphate 5-phosphatase

`O=P(O)(O)OC1C(O)C(O)C(OP(O)(O)=S)C(OP(O)(O)=S)C1O` (stereo unspecified) was tested, and the pKi was 5.89.
